Target: T1, human DGAT1 (Homo sapiens, UniProt O75907)
T1 construct: made in house; host or cells: Sf9 insect cells (recombinant baculovirus), membrane fraction
T1 sequence (O75907 1-488): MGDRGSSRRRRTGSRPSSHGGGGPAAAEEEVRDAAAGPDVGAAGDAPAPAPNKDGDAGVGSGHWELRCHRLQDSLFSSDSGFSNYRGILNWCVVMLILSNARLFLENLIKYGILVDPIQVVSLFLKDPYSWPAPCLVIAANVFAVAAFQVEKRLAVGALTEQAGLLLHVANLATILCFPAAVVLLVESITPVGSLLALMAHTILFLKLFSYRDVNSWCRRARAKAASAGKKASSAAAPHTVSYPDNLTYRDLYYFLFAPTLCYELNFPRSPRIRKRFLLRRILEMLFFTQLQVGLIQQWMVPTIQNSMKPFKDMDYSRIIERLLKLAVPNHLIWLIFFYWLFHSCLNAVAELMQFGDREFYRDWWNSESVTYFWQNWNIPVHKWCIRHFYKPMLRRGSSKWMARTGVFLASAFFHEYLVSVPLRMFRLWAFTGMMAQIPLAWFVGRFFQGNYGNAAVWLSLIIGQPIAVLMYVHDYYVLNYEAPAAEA
Experiment: Human Enzyme Assay (DGAT1 inhibition)
Assay type: biochemical
Details: human DGAT1 expressed in insect cell (sf9) membranes; 14C oleoyl coenzyme A, 30 minutes, room temperature
Description: The in vitro assay to identify DGAT1 inhibitors uses human DGAT1 expressed in insect cell membranes as the enzyme source (Proc. Natl. Acad. Sci. 1998, 95, 13018-13023). Briefly, sf9 cells were infected with recombinant baculovirus containing human DGAT1 coding sequences and harvested after 48 h. Cells were lysed by sonication and membranes isolated by centrifuging at 28000 rpm for 1 h at 4° C. on a 41% sucrose gradient. The membrane fraction at the interphase was collected, washed, and stored in liquid nitrogen.
DGAT1 activity was assayed by a modification of the method described by Coleman (Methods in Enzymology 1992, 209, 98-102). Compound at 1-10 μM was incubated with 0.4 μg membrane protein, 5 mM MgCl2, and 100 μM 1,2 dioleoyl-sn-glycerol in a total assay volume of 200 μl in plastic tubes. The reaction was started by adding ^14C oleoyl coenzyme A (30 μM final concentration) and incubated at room temperature for 30 minutes. The reaction was stopped by adding 1.5 mL 2-propanol:heptane:water (80:20:2). Radioactive triolein product was separated into the organic phase by adding 1 mL heptane and 0.5 mL 0.1 M carbonate buffer pH 9.5. DGAT1 activity was quantified by counting aliquots of the upper heptane layer by liquid scintillography.

IC50: 100 nM
SMILES: O=C(O)CC1CCC(c2ccc(NC(=O)c3cnc(Nc4ccccc4)o3)cc2)CC1 (stereo not shown) [Example 1, [4-(4-{[(2-Anilino-1,3-oxazol-5-yl)carbonyl]amino}phenyl)cyclohexyl]acetic acid]

— US20090209602A1, “CHEMICAL COMPOUNDS” (priority 2006, published 2009)
